Measured values from ChEMBL document CHEMBL4507319 (2021).

Key:
[1] = biological target: SRSF protein kinase 1 (Homo sapiens) (UniProt Q96SB4); details: Compound concentration 1000.0 nM
[2] = tested on: Mast/stem cell growth factor receptor Kit (Homo sapiens), P10721 [L576P]; details: Compound concentration 1000.0 nM
[3] = biological target: Aurora kinase B (Homo sapiens) (UniProt Q96GD4); details: Compound concentration 1000.0 nM
[4] = biological target: Cyclin-dependent kinase-like 5 (Homo sapiens) (UniProt O76039); details: Compound concentration 1000.0 nM
Chain of Cyclin-dependent kinase-like 5 (Homo sapiens) (O76039 whole entry): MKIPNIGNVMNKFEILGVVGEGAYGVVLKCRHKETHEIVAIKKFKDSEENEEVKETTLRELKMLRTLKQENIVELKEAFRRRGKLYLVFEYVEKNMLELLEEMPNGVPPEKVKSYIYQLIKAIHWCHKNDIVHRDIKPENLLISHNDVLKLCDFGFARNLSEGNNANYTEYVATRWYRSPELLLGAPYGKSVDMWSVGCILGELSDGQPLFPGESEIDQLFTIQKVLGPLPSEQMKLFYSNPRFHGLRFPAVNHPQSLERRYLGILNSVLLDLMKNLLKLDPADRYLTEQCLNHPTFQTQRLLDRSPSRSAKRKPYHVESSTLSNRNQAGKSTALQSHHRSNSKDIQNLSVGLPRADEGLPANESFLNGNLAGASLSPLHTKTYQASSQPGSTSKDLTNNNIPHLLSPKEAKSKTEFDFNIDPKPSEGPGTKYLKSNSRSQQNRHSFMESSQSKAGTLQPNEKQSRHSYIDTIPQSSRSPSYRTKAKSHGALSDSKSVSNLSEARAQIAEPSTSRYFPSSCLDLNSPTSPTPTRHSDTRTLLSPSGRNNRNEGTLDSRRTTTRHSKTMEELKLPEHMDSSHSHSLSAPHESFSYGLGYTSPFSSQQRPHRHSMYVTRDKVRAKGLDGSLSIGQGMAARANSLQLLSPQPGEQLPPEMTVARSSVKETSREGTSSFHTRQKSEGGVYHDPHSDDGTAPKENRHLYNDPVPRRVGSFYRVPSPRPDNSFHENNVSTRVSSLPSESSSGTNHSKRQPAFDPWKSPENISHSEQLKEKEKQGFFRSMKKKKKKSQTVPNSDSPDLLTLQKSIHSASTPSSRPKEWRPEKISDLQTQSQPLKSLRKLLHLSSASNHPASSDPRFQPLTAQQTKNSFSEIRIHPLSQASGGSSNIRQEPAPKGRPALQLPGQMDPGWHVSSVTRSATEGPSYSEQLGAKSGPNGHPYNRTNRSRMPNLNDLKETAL

[5] = biological target: T1, Serine/threonine-protein kinase tousled-like 1 (Homo sapiens) (UniProt Q9UKI8); details: Compound concentration 1000.0 nM
T1 sequence (whole entry): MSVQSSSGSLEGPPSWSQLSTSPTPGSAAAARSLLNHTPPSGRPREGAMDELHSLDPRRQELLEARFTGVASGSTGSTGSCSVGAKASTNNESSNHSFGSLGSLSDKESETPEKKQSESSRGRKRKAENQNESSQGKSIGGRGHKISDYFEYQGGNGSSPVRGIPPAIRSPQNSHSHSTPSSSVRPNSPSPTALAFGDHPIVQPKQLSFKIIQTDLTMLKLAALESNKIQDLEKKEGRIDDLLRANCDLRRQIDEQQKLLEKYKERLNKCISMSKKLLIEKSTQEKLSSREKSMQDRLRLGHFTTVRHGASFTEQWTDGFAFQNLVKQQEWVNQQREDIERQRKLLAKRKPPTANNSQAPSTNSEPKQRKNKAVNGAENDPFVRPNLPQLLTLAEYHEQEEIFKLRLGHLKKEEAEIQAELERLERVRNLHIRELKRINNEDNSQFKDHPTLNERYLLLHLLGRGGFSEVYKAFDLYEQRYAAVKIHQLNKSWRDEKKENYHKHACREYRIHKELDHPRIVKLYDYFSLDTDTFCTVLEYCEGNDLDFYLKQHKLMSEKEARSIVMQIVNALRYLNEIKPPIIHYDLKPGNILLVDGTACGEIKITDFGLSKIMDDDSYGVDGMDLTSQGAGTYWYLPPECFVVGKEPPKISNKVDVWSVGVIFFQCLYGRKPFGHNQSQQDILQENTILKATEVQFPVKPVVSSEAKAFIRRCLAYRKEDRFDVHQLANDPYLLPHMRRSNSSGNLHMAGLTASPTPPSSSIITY

[6] = biological target: 5-hydroxytryptamine receptor 7 (Homo sapiens) (UniProt P34969); details: Compound concentration 10.0 uM
[7] = biological target: Peripheral plasma membrane protein CASK (Homo sapiens) (UniProt O14936); details: Compound concentration 1000.0 nM
Chain of Peripheral plasma membrane protein CASK (Homo sapiens) (O14936 whole entry): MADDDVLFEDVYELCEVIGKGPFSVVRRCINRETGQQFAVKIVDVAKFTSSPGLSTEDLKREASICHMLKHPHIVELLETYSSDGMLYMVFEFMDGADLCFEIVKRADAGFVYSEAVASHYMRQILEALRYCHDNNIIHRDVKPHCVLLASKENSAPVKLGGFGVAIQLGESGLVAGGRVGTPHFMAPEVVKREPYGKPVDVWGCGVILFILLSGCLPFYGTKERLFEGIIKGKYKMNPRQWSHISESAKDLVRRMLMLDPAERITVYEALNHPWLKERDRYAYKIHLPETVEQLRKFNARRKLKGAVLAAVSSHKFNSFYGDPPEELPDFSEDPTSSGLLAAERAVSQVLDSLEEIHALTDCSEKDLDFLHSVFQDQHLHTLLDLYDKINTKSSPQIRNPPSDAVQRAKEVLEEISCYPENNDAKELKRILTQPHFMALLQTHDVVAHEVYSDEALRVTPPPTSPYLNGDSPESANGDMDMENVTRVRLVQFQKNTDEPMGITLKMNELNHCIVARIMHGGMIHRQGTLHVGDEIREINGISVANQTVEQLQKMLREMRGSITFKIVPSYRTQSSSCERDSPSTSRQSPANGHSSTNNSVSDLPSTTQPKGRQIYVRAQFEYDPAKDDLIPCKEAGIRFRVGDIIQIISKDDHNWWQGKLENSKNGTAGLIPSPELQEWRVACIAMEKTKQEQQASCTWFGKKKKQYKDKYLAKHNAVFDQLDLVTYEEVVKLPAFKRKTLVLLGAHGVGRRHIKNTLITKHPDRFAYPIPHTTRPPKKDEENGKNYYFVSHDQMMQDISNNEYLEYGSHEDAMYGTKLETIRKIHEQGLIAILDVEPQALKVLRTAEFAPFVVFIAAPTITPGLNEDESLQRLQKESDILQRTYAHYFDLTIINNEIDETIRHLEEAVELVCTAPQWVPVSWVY

[8] = biological target: T2, Serine/threonine-protein kinase Nek9 (Homo sapiens) (UniProt Q8TD19); details: Compound concentration 1000.0 nM
T2 sequence (whole entry): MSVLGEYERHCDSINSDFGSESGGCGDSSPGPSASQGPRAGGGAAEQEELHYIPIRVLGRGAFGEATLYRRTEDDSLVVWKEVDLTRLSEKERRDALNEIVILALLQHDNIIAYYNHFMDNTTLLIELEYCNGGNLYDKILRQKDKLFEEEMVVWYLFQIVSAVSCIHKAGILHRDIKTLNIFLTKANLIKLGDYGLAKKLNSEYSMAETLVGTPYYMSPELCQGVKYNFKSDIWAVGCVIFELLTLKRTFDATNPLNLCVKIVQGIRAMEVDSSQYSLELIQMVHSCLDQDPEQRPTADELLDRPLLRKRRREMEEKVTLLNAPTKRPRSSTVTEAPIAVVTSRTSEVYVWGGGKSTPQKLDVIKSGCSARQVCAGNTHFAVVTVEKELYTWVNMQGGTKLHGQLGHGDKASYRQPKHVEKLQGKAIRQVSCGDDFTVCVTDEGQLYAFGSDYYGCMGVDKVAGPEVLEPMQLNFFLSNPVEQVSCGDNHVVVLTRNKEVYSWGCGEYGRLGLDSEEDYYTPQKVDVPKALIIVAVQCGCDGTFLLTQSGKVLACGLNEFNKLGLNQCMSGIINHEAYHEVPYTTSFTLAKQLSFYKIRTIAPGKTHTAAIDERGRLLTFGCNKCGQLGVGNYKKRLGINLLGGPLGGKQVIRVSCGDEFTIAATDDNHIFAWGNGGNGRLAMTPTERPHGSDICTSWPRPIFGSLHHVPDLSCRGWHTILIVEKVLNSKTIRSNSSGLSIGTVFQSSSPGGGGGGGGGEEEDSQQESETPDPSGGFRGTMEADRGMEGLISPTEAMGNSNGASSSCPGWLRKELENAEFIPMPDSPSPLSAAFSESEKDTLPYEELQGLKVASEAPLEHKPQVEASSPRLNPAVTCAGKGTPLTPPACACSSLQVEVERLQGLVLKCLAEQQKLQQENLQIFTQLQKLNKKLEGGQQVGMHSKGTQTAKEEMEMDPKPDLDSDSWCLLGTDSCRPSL

[9] = biological target: Death-associated protein kinase 2 (Homo sapiens) (UniProt Q9UIK4); details: Compound concentration 1000.0 nM
Chain of Death-associated protein kinase 2 (Homo sapiens) (Q9UIK4 whole entry, looked up): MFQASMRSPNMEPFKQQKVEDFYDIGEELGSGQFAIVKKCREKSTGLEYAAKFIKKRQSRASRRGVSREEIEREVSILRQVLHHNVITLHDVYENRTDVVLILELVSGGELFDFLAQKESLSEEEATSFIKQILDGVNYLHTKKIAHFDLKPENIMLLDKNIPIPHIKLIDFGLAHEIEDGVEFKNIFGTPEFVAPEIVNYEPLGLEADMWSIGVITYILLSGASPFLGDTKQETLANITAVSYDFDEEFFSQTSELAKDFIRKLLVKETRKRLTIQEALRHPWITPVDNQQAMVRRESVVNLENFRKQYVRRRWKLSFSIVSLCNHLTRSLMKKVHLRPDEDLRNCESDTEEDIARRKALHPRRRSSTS

[10] = biological target: Uncharacterized serine/threonine-protein kinase SBK3 (Homo sapiens) (UniProt P0C264); details: Compound concentration 1000.0 nM
Chain of Uncharacterized serine/threonine-protein kinase SBK3 (Homo sapiens) (P0C264 whole entry): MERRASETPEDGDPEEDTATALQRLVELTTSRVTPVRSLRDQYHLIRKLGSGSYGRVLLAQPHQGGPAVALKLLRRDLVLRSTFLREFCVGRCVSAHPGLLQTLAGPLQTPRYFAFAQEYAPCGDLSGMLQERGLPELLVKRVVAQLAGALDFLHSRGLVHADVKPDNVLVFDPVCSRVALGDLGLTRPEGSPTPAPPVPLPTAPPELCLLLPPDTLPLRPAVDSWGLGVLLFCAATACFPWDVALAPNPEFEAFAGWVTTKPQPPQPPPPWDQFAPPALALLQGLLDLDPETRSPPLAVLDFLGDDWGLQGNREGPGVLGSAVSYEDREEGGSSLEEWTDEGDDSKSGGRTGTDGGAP

Chain of Mast/stem cell growth factor receptor Kit (Homo sapiens), P10721 [L576P] (P10721 whole entry L576P): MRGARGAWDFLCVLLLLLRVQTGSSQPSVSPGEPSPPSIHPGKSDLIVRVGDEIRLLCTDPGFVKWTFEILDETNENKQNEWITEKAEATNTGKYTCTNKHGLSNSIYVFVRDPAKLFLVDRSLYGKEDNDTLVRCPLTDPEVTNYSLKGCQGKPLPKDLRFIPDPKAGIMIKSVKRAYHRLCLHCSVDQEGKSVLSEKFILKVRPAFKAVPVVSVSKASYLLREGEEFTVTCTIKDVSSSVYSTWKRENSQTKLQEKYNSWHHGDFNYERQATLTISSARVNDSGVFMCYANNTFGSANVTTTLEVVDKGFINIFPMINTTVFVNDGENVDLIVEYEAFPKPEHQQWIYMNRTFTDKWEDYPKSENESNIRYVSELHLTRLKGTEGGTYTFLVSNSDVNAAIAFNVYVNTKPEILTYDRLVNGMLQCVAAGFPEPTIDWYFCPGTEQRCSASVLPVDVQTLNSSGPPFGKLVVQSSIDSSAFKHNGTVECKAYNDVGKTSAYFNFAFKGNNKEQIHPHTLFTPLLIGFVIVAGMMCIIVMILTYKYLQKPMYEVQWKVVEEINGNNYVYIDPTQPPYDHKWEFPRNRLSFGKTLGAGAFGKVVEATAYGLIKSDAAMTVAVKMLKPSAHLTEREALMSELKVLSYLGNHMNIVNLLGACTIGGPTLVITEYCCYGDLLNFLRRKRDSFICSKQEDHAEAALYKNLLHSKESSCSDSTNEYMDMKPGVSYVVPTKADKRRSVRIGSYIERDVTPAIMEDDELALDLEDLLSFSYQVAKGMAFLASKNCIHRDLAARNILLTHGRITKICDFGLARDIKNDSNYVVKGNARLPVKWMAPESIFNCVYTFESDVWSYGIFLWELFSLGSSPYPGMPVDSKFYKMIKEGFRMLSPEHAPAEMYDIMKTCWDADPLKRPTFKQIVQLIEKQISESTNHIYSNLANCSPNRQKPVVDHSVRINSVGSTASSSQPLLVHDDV
Chain of Aurora kinase B (Homo sapiens) (Q96GD4 whole entry): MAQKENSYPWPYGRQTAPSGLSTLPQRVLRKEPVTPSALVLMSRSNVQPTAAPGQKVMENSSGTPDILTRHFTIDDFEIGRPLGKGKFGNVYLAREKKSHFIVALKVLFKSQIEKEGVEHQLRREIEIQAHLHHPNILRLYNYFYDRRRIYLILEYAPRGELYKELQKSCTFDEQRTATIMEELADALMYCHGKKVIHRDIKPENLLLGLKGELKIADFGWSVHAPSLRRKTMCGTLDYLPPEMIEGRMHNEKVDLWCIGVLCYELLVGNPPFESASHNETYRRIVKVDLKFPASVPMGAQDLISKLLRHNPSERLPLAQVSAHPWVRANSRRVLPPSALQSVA
Chain of SRSF protein kinase 1 (Homo sapiens) (Q96SB4 whole entry): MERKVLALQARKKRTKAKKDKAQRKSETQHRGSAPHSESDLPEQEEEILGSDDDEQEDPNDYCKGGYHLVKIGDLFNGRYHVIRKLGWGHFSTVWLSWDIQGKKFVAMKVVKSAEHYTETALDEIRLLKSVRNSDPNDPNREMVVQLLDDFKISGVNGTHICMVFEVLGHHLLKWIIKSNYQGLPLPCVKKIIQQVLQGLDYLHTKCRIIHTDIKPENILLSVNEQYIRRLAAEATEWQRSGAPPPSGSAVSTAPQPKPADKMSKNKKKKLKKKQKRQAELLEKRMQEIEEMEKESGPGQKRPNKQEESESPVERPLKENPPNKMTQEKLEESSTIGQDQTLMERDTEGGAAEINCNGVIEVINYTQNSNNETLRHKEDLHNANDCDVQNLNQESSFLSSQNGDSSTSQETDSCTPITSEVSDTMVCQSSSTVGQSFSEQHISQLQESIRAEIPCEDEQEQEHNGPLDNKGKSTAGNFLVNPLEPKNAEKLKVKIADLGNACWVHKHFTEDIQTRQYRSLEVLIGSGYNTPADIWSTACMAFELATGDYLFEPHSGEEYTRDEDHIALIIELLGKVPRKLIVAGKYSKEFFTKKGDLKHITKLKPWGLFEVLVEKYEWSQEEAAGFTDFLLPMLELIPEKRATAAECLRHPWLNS

CCc1ccccc1C(=O)Nc1n[nH]c2c(C)c(F)c(C3C(C#N)=C(C)N(C)C(C)=C3C#N)cc12 [BAY-3827]
inactive: residual activity [1] 89% | residual activity [2] 91% | residual activity [3] 88% | residual activity [4] 100% | residual activity [5] 100% | inhibition [6] 13.9% | residual activity [7] 81% | residual activity [8] 93% | residual activity [9] 63% | residual activity [10] 73%

CC1=C(C#N)C(c2ccc3c(c2)c(NC(=O)c2ccccc2C)nn3C)C(C#N)=C(C)N1 [BAY-974]
inactive: residual activity [1] 89% | residual activity [2] 100% | residual activity [3] 66% | residual activity [4] 79% | residual activity [5] 88% | inhibition [6] 6.72% | residual activity [7] 67% | residual activity [8] 100% | residual activity [9] 98% | residual activity [10] 100%
